Assays:
Pa9 gene = Pa9 gene expression by real-time RT-PCR in HuH7 hepatocytes; type: cell-based, human; conditions: for Pa9 (W38098) gene expression, Percentage ± SE (%): HuH7 hepatocytes, about 20-24 h, vehicle control = 100
Source text: (§1) Human hepatocyte HuH7 cells, which are epithelial cells of liver, were obtained from Japan Health Science Research Resources Bank (Osaka, Japan). Human primary adipocytes, which are connective tissue cells specialized for the synthesis and storage of fat, were obtained from Zen-Bio, Inc (Research Triangle Park, NC). Human primary skeletal muscle cells (SKMC) were obtained from Cambrex Bio Science (Walkersville, Md.). PPARα agonists, Wy14643 (Agatha, et al, 2000, Archives of Biochemistry and Biophysics 380:353-359) and fenofibrates were obtained from Cayman Chemical (Ann Arbor, Mich.) and Sigma (St Louis, Mo.), respectively.
(§2) Human HuH7 cells were cultured in Dulbecco's Modified Eagle Medium with 10% Fetal Bovine Serum (Gibco, N.Y.). Cells were treated with charcoal-stripped, delipidated calf serum (5%) (Sigma, St Louis, Mo.) for about 4-18 hours. Then, cells were treated with different concentrations of PPARα agonist (Wy14643 or fenofibrates) for about 20-24 h. Human SKM cells were cultured in Skeletal Muscle Growth Medium (Cambrex Bio Science, Walkersville, Md.), and were treated with different concentrations of PPARα agonist (Wy14643 or fenofibrates) for about 18-20 hours. Human primary adipocytes were cultured in Preadipocyte Medium, (Cat #PM—1, Zen-Bio, Inc., Research Triangle Park, NC), and were treated with different concentrations of PPARα agonist (Wy14643 or fenofibrates) for about 18-20 hours.
(§3) Total RNA was purified from cultured cells following the protocol provided by the manufacturer (Trizon method, Invitrogen Inc. Ca). The polymerase chain reaction (PCR) primers and fluorescent probes (TagMan probes) for Pa9, Pa13, and Pa21 were designed from GenBank sequences of accession numbers W30988, AB000584, and NM_080725, respectively. The primers and probes were designed using the software PrimerDesign (Applied Biosystems, Foster City, Calif.). The PCR primers for Pa9 were SEQ ID NO: 7, (5-[…]) and SEQ ID NO: 8 (5-[…]). […] The PCR primers for Pa13 were SEQ ID NO: 10 (5-[…], T) and SEQ ID NO: 11 (5-[…] T). […] The PCR primers for Pa21 were SEQ ID NO: 13 (5-[…] C) and SEQ ID NO: 14 (5-[…]). […] All primers and probes were synthesized by Keystone Labs (Camarillo, Calif.).
(§4) Reverse transcription (RT) and PCR were conducted in one step using “One-Step RT-PCR Master Mix Reagent” kit (Applied Biosystems, Foster City, Calif.) in ABI PRISM 7700 Sequence Detection System (Applied Biosystems). Each reaction was performed in a total volume of 25 μl containing 40 ng of total RNA. The reaction condition was: 48° C. for 30 minutes, 60° C. for 30 minutes, 94° C. for 5 minutes, followed by 40 cycles of 94° C. for 20 seconds and 60° C. for 1 minute. The primers for 18S ribosomal RNA were developed and provided by Applied Biosystems. The measurement of human 18S ribosomal RNA was used as an internal control for normalization of measuring and loading errors. PCR data were collected by Ct value (the cycle number at which logarithmic PCR plots cross a calculated threshold line) according to the manufacturer's guidelines and the value was used to determine the Δ^Ct (Ct of the target gene minus the Ct of 18S ribosomal RNA controls). Relative mRNA level was calculated using the equation 2^−ΔΔCt as described previously (Heid et al., 1996, Genome Res. 6:986-994).

Pa21 gene [1] = assay: Pa21 gene expression by real-time RT-PCR in HuH7 hepatocytes; type: cell-based, human; conditions: about 20-24 h, vehicle control = 100
Source text: as §1, §2, §3, §4

Pa21 gene [2] = assay: Pa21 gene expression by real-time RT-PCR in primary skeletal muscle cells; type: cell-based, human; conditions: about 18-20 hours, vehicle control = 100
Source text: as §1, §2, §3, §4

Pa13 gene = Pa13 gene expression by real-time RT-PCR in primary adipocytes; type: cell-based, human; conditions: about 18-20 hours, vehicle control = 100
Source text: as §1, §2, §3, §4

Pa21 gene [3] = assay: Pa21 gene expression in SKM cells with siRNA-reduced PPARα expression; type: cell-based, human; conditions: SKMU cells with reduced PPARα expression
Source text: SiRNA oligos specific to PPARα were designed and used to knock-down or reduce the expression level of PPARα in human SKMU cells following procedures known to those skilled in the art (Brummelkamp et al., 2002, Science, 296: 550-553). Four sets of siRNA oligo were originally designed using GenBank accession number S74349 (human peroxisome proliferator activated receptor alpha, cDNA; PPARα) as the template, and the software, Target Finder (Ambion, Austin, Tex.). […] The sequences for the two sets of siRNA correspond to 907 bp to 927 bp (SEQ ID NO: 21, 5′-[…] A) and 1106 bp to 1126 bp of the cDNA (SEQ ID NO: 22, 5′-[…] T) relative to the first nucleotide of the start codon. The oligos were chemically synthesized by Ambion Inc. (Austin, Tex.). The universal negative control siRNA oligo was purchased from Ambion.
Human primary skeletal muscle cells (hSKM, provided by Cambrex, Md.) were prepared the day before transfection at the density of 4.67×10^4 cells/per 60 mm dish (about 20% confluence). The cells were cultured at 37° C., 5% CO2 for 24 hrs with antibiotics-free SKGM medium (Cambrex, Md.). […]
Again, total RNA was isolated from the cells and real-time PCR was performed and the expression levels of target genes of interest, such as Pa9, 13 and 21, were quantitatively measured using the RT-PCR technique described in Example 1.

[4] = test system: murine FIAF (fasting induced adipose factor); conditions: PPARα wild type mouse liver cells; cited from earlier work

Cc1cccc(Nc2cc(Cl)nc(SCC(=O)O)n2)c1C [Wy14643]
Pa9 (W38098) gene expression, Percentage ± SE (%) (Pa9 gene; 3 uM): 90 ± 17% | Pa9 (W38098) gene expression, Percentage ± SE (%) (Pa9 gene; 10 uM): 190 ± 62.1% | Pa9 (W38098) gene expression, Percentage ± SE (%) (Pa9 gene; 30 uM): 200 ± 48% | Pa9 (W38098) gene expression, Percentage ± SE (%) (Pa9 gene; 100 uM): 540 ± 57.8% | Pa9 (W38098) gene expression, Percentage ± SE (%) (Pa9 gene; 300 uM): 690 ± 42.8% | gene expression of Pa9, Pa13, or Pa21 (statement in words) (Pa9 gene; human HuH7 cells, primary SKMU cells, or primary adipocytes (Tables 1-3)): increased gene expression | Pa21 (H4960) gene expression, Percentage ± SE (%) (Pa21 gene [1]; 3 uM): 145.5 ± 21.9% | Pa21 (H4960) gene expression, Percentage ± SE (%) (Pa21 gene [1]; 10 uM): 163.6 ± 35% | Pa21 (H4960) gene expression, Percentage ± SE (%) (Pa21 gene [1]; 30 uM): 372.7 ± 17.8% | Pa21 (H4960) gene expression, Percentage ± SE (%) (Pa21 gene [1]; 100 uM): 227.3 ± 14.8% | Pa21 (H4960) gene expression, Percentage ± SE (%) (Pa21 gene [1]; 300 uM): 481.8 ± 12.1% | Pa21 (H4960) gene expression, Percentage ± SE (%) (Pa21 gene [2]; 3 uM): 130 ± 23.8% | Pa21 (H4960) gene expression, Percentage ± SE (%) (Pa21 gene [2]; 10 uM): 200 ± 48.5% | Pa21 (H4960) gene expression, Percentage ± SE (%) (Pa21 gene [2]; 30 uM): 310 ± 1.9% | Pa21 (H4960) gene expression, Percentage ± SE (%) (Pa21 gene [2]; 100 uM): 560 ± 16.6% | Pa21 (H4960) gene expression, Percentage ± SE (%) (Pa21 gene [2]; 300 uM): 2250 ± 11.7% | Pa13 (N26311) gene expression, Percentage ± SE (%) (Pa13 gene; 10 uM): 56 ± 10% | Pa13 (N26311) gene expression, Percentage ± SE (%) (Pa13 gene; 50 uM): 55 ± 2% | Pa13 (N26311) gene expression, Percentage ± SE (%) (Pa13 gene; 250 uM): 214 ± 7.9% | induction of Pa21 gene expression (FIG. 7) (Pa21 gene [3]): no detectable induction | expression of murine FIAF [4]: increased

From patent US20050191668A1, “Methods of using peroxisome proliferator-activated receptor alpha target genes” (priority 2004, published 2005)
